In PubChem BioAssay AID330 (DTP/NCI, 2004):
Values joined by “and” are separate entries in the source; they are usually repeats but may differ in a detail not shown here. Equal entries are not always repeated. Toxic doses and inconclusive results are not listed.

System: P388 leukemia ip, CD2F1 mice, survival T/C
Experiment: NCI In Vivo Anticancer Drug Screen. Data for tumor model P388 Leukemia (intraperitoneal) in CD2F1 (CDF1) mice
Conditions: endpoint: median survival time, higher = longer survival
In short: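 Mice carrying the transplanted tumor received test compound or vehicle. Survival was recorded in each group, and the value is the treated-group measurement divided by that of the vehicle-treated control group.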

[1] = dose: 25.0 mg/kg/injection, schedule: Q01DX009 (ip), vehicle: other
[2] = dose: 50.0 mg/kg/injection, schedule: Q01DX009 (ip), vehicle: Klucel (hydroxypropylcellulose) (HPC)
[3] = dose: 100.0 mg/kg/injection, schedule: Q01DX009 (ip), vehicle: Klucel (hydroxypropylcellulose) (HPC)
[4] = dose: 200.0 mg/kg/injection, schedule: Q01DX009 (ip), vehicle: Klucel (hydroxypropylcellulose) (HPC)
[5] = dose: 50.0 mg/kg/injection, schedule: Q01DX005 (ip), vehicle: Klucel (hydroxypropylcellulose) (HPC)
[6] = dose: 100.0 mg/kg/injection, schedule: Q01DX005 (ip), vehicle: Klucel (hydroxypropylcellulose) (HPC)
[7] = dose: 200.0 mg/kg/injection, schedule: Q01DX005 (ip), vehicle: Klucel (hydroxypropylcellulose) (HPC)
[8] = dose: 50.0 mg/kg/injection, schedule: Q01DX005 (ip), vehicle: saline with Tween-80
[9] = dose: 100.0 mg/kg/injection, schedule: Q01DX005 (ip), vehicle: saline with Tween-80
[10] = dose: 200.0 mg/kg/injection, schedule: Q01DX005 (ip), vehicle: saline with Tween-80
[11] = dose: 100.0 mg/kg/injection, schedule: Q04DX003 (ip), vehicle: saline
[12] = dose: 6.25 mg/kg/injection, schedule: Q01DX005 (ip), vehicle: Klucel (hydroxypropylcellulose) (HPC)
[13] = dose: 60.0 mg/kg/injection, schedule: Q01DX005 (ip), vehicle: saline with Tween-80
[14] = dose: 120.0 mg/kg/injection, schedule: Q01DX005 (ip), vehicle: saline with Tween-80
[15] = dose: 240.0 mg/kg/injection, schedule: Q01DX005 (ip), vehicle: saline with Tween-80
[16] = dose: 25.0 mg/kg/injection, schedule: Q04DX003 (ip), vehicle: saline

For `NCCNc1ccc(NCCN)c2c1C(=O)c1ccccc1C2=O`, the T/C (dose: 0.78 mg/kg/injection, schedule: Q01DX009 (ip), vehicle: distilled water + alcohol) was 150 % of control, the T/C (dose: 2.0 mg/kg/injection, schedule: Q01DX009 (ip), vehicle: acid diluted with saline) was 185 % of control and the T/C (dose: 3.13 mg/kg/injection, schedule: Q01DX009 (ip), vehicle: distilled water + alcohol) was 107 % of control. For the same molecule, the T/C (dose: 4.0 mg/kg/injection, schedule: Q01DX009 (ip), vehicle: acid diluted with saline) was 194 % of control, the T/C (dose: 6.25 mg/kg/injection, schedule: Q01DX009 (ip), vehicle: distilled water + alcohol) was 159 % of control and the T/C (dose: 8.0 mg/kg/injection, schedule: Q01DX009 (ip), vehicle: acid diluted with saline) was 203 % of control. For the same molecule, the T/C (dose: 12.5 mg/kg/injection, schedule: Q01DX009 (ip), vehicle: distilled water + alcohol) was 174 % of control, the T/C (dose: 16.0 mg/kg/injection, schedule: Q01DX009 (ip), vehicle: acid diluted with saline) was 243 % of control and the T/C (dose: 25.0 mg/kg/injection, schedule: Q01DX009 (ip), vehicle: distilled water + alcohol) was 215 % of control. The T/C [1] was 158 % of control.

In the case of `Cc1cc(Cl)ccc1OCC1OC(=O)C(C)(C)O1` (stereo not given), the T/C [2] is reported as 100 % of control, the T/C [3] is reported as 100 % of control and the T/C [4] is reported as 101 % of control.

`Nc1[nH]c(=S)nc2nc3c4ccccc4c4ccccc4c3nc12` was tested, and the T/C [5] was 91 % of control, the T/C [6] was 90 % of control and the T/C [7] was 91 % of control.

With `CCOC(=O)C1=C(Nc2ccc(OC)cc2)C(N)=NC1=N` the T/C (dose: 6.25 mg/kg/injection, schedule: Q01DX009 (ip), vehicle: suspension in saline) was 100 % of control, the T/C (dose: 12.5 mg/kg/injection, schedule: Q01DX009 (ip), vehicle: suspension in saline) was 102 % of control and 110 % of control and the T/C (dose: 25.0 mg/kg/injection, schedule: Q01DX009 (ip), vehicle: suspension in saline) was 106 % of control and 117 % of control. The T/C (dose: 50.0 mg/kg/injection, schedule: Q01DX009 (ip), vehicle: suspension in saline) was 102 % of control and 121 % of control and the T/C (dose: 100.0 mg/kg/injection, schedule: Q01DX009 (ip), vehicle: suspension in saline) was 92 % of control.

In the case of `CCOCC1OCCCO1`, the T/C (dose: 60.0 mg/kg/injection, schedule: Q01DX005 (ip), vehicle: saline) is reported as 104 % of control, the T/C (dose: 120.0 mg/kg/injection, schedule: Q01DX005 (ip), vehicle: saline) is reported as 103 % of control and the T/C (dose: 240.0 mg/kg/injection, schedule: Q01DX005 (ip), vehicle: saline) is reported as 103 % of control.

For `CC1CC(O)C(CN(C)C)C(C)(C)C1` (stereo not given), the T/C [8] was 106 % of control and the T/C [9] was 100 % of control.

In the case of `COc1ccc(/C(CC2(O)C(=O)Nc3ccccc32)=N\NC(=O)NN)cc1O` (stereo not given), the T/C [8] is reported as 101 % of control, the T/C [9] is reported as 107 % of control and the T/C [10] is reported as 100 % of control.

`[CH3][Ge]([c]1ccccc1)[c]1cccc2ccccc12.[CH3][Sn]([CH3])[c]1ccccc1` was tested, and the T/C [11] was 100 % of control, the T/C (dose: 200.0 mg/kg/injection, schedule: Q04DX003 (ip), vehicle: saline) was 100 % of control and the T/C (dose: 400.0 mg/kg/injection, schedule: Q04DX003 (ip), vehicle: saline) was 101 % of control.

In the case of `O=C/C=C/c1ccc2c(c1)OC(CO)C(c1ccc(O)c(O)c1)O2` (stereo not given), the T/C (dose: 3.12 mg/kg/injection, schedule: Q01DX005 (ip), vehicle: Klucel (hydroxypropylcellulose) (HPC)) is reported as 86 % of control and the T/C [12] is reported as 91 % of control.

With `CSc1nc(N)c2cnn(Cc3ccccc3)c2n1` the T/C (dose: 100.0 mg/kg/injection, schedule: Q01DX001 (ip), vehicle: saline with Tween-80) was 102 % of control, the T/C (dose: 200.0 mg/kg/injection, schedule: Q01DX001 (ip), vehicle: saline with Tween-80) was 100 % of control and the T/C (dose: 400.0 mg/kg/injection, schedule: Q01DX001 (ip), vehicle: saline with Tween-80) was 94 % of control.

In the case of `COc1ccc(-c2[nH]c(=O)c(C#N)c(C(=O)NN)c2-c2ccc(OC)cc2)cc1`, the T/C [13] is reported as 112 % of control, the T/C [14] is reported as 100 % of control and the T/C [15] is reported as 89 % of control.

For `O=S(=O)(Cc1ccccc1)Oc1ccccc1`, the T/C (dose: 100.0 mg/kg/injection, schedule: Q04DX003 (ip), vehicle: Klucel (hydroxypropylcellulose) (HPC)) was 109 % of control, the T/C (dose: 200.0 mg/kg/injection, schedule: Q04DX003 (ip), vehicle: Klucel (hydroxypropylcellulose) (HPC)) was 103 % of control and the T/C (dose: 400.0 mg/kg/injection, schedule: Q04DX003 (ip), vehicle: Klucel (hydroxypropylcellulose) (HPC)) was 94 % of control.

In the case of `COC(=O)C1c2cc3c(c(O)c2CCC1(C)O)C(=O)c1c(O)cc2c(c1C3=O)OC1OC2(C)C(O)C(N(C)C)C1O` (stereo not given), the T/C (dose: 6.25 mg/kg/injection, schedule: Q01DX009 (ip), vehicle: saline) is reported as 117 % of control, the T/C (dose: 12.5 mg/kg/injection, schedule: Q01DX009 (ip), vehicle: saline) is reported as 120 % of control and the T/C [16] is reported as 115 % of control. The T/C (dose: 50.0 mg/kg/injection, schedule: Q04DX003 (ip), vehicle: saline) was 114 % of control and the T/C [11] was 115 % of control.

In the case of `O=C(O)c1cc(C(=O)C(=O)c2cc(C(=O)O)c(O)c3ccccc23)c2ccccc2c1O`, the T/C (dose: 50.0 mg/kg/injection, schedule: Q01DX009 (ip), vehicle: saline with Tween-80) is reported as 95 % of control, the T/C (dose: 100.0 mg/kg/injection, schedule: Q01DX009 (ip), vehicle: saline with Tween-80) is reported as 95 % of control and the T/C (dose: 200.0 mg/kg/injection, schedule: Q01DX009 (ip), vehicle: saline with Tween-80) is reported as 101 % of control.

In the case of `CCOC1(NC(=O)N(C)C)C2CCCC21` (stereo not given), the T/C (dose: 25.0 mg/kg/injection, schedule: Q01DX009 (ip), vehicle: Klucel (hydroxypropylcellulose) (HPC)) is reported as 97 % of control, the T/C [2] is reported as 97 % of control and the T/C [3] is reported as 94 % of control.

`Cc1cc(C)c2c(c1)sc1nncn12` was tested, and the T/C [2] was 118 % of control, the T/C [3] was 94 % of control and the T/C [4] was 92 % of control.

`CC1(C)[S][Sn]2[NH]C1C(=O)[O]2` (stereo not given) was tested, and the T/C [5] was 98 % of control and the T/C [6] was 94 % of control.

With `CC1=C(C)CN(CCC(=O)O)C(C(N)=O)C1` (stereo not given) the T/C (dose: 50.0 mg/kg/injection, schedule: Q01DX005 (ip), vehicle: saline) was 100 % of control, the T/C (dose: 100.0 mg/kg/injection, schedule: Q01DX005 (ip), vehicle: saline) was 107 % of control and the T/C (dose: 200.0 mg/kg/injection, schedule: Q01DX005 (ip), vehicle: saline) was 100 % of control.

In the case of `O=[N+]([O-])C1CCC(N=Nc2c(O)ccc3ccccc23)CC1` (stereo not given), the T/C [13] is reported as 96 % of control, the T/C [14] is reported as 99 % of control and the T/C [15] is reported as 99 % of control.

In the case of `Oc1ccc(O)c(/C=N/N=C/c2cc(O)ccc2O)c1`, the T/C [5] is reported as 97 % of control, the T/C [6] is reported as 97 % of control and the T/C [7] is reported as 91 % of control.

For `Cc1oc2ccccc2c(=O)c1CO`, the T/C [13] was 104 % of control, the T/C [14] was 100 % of control and the T/C [15] was 100 % of control.

In the case of `Cc1ccc2ccccc2[n+]1CC(=O)c1ccc([N+](=O)[O-])cc1`, the T/C [12] is reported as 108 % of control, the T/C (dose: 12.5 mg/kg/injection, schedule: Q01DX005 (ip), vehicle: Klucel (hydroxypropylcellulose) (HPC)) is reported as 108 % of control and the T/C (dose: 25.0 mg/kg/injection, schedule: Q01DX005 (ip), vehicle: Klucel (hydroxypropylcellulose) (HPC)) is reported as 103 % of control. For the same molecule, the T/C [8] was 96 % of control, the T/C [9] was 102 % of control and the T/C [10] was 111 % of control.

With `C[n+]1ccc2ccccc2c1C#N` the T/C (dose: 12.5 mg/kg/injection, schedule: Q04DX003 (ip), vehicle: saline) was 106 % of control and the T/C [16] was 98 % of control.

With `CC1(C)CCCC2(C)C1CCC1(C)OC(/C(=C\CO)CO)CC12` (stereo not given) the T/C [2] was 96 % of control and the T/C [3] was 86 % of control.

`CC(C)(C)OC(=O)NNCC(=O)OCc1ccccc1` was tested, and the T/C (dose: 12.5 mg/kg/injection, schedule: Q01DX009 (ip), vehicle: other) was 96 % of control, the T/C [1] was 103 % of control and the T/C (dose: 50.0 mg/kg/injection, schedule: Q01DX009 (ip), vehicle: other) was 111 % of control. The T/C (dose: 100.0 mg/kg/injection, schedule: Q01DX009 (ip), vehicle: other) was 101 % of control and the T/C (dose: 200.0 mg/kg/injection, schedule: Q01DX009 (ip), vehicle: other) was 99 % of control.

In the case of `C=CC(C)(C)c1cc2cc3c(cc2oc1=O)OC1(C)CCC(C(C)(C)O)OC1C3` (stereo not given), the T/C (dose: 12.5 mg/kg/injection, schedule: Q01DX005 (ip), vehicle: saline with Tween-80) is reported as 99 % of control, the T/C (dose: 25.0 mg/kg/injection, schedule: Q01DX005 (ip), vehicle: saline with Tween-80) is reported as 99 % of control and the T/C [8] is reported as 93 % of control. For the same molecule, the T/C [9] was 89 % of control.
